In patent US8748481B2, “Method for treating gastrointestinal disorder” (Sucampo AG, priority 2004, dated 2014):
Marks after values point to notes of the source that are not given here.

Columns and labels:
[1] = test system: different aged patients with occasional constipation; test: Weekly number of spontaneous bowel movements by age (Example 5); type: in vivo, human; details: 48 μg/day, 4 weeks; all aged groups, even 65 years and older
Protocol: Multi-center, parallel-group, double-blind, placebo-controlled study was performed to compare the effect of Compound A on improving weekly number of spontaneous bowel movements among different aged patients with occasional constipation. The patients were received 48 μg (total daily dose) of Compound A (24 μg of Compound A b.i.d) for 4 weeks. The bowel movements in the patient were recorded during the treatment.

[2] = test system: subjects with occasional constipation; test: MOS SF-36 quality of life assessment, 48-week study (Example 6); type: in vivo, human
Protocol: A 48-week multi-center study was performed to assess the safety and efficacy of 48 μg (total daily dose) of Compound A to subjects with occasional constipation. […] After 14-day drug-free washout period, they received orally 48 μg of Compound A (24 μg of […], b.i.d) daily for 48 weeks.
The subjects completed the Medical Outcomes Study (MOS) 36-item short form (SF-36), i.e., a conventionally used QOL assessment form, at enrollment (baseline) and end of treatment (Week 48). Components of the MOS SF-36 (Med Care 30(6),473-483, 1992) are outlined below: • Physical component: Physical Function; Role-Physical, Bodily Pain and General Health • Mental component: Vitality, Social Function, Role-Emotional and Mental Health
Each of the 8 components was scored within the guidelines of the publisher, including the publisher's guidelines for imputing missing variables. The change from baseline in each of the 8 component scores at the end of treatment (Week 48) were recorded and evaluated with paired t-tests.

Compound: CCCCC(F)(F)C(=O)CCC1C(O)CC(=O)C1CCCCCCC(=O)O (stereo not drawn) [Compound A, 13,14-dihydro-15-keto-16,16-difluoro-PGE1]
- Effect on weekly number of spontaneous bowel movements by age (FIG. 14) [1]: significantly effective
- Effect on QOL of the patients (SF-36) ([2]; 48 μg/day, 48 weeks): improves the QOL
- SF36 Bodily Pain score, Mean ([2]; Baseline): 47.53
- SF36 General Health score, Mean ([2]; Baseline): 51.52
- SF36 Mental Health score, Mean ([2]; Baseline): 50.60
- SF36 Physical Function score, Mean ([2]; Baseline): 49.04
- SF36 Role-Emotional score, Mean ([2]; Baseline): 49.52
- SF36 Role-Physical score, Mean ([2]; Baseline): 49.75
- SF36 Social Function score, Mean ([2]; Baseline): 50.12
- SF36 Vitality score, Mean ([2]; Baseline): 50.61
- SF36 Bodily Pain score, Mean change from baseline ([2]; Week 48, 48 μg/day): 3.38**
- SF36 General Health score, Mean change from baseline ([2]; Week 48, 48 μg/day): 1.47*
- SF36 Mental Health score, Mean change from baseline ([2]; Week 48, 48 μg/day): 1.97**
- SF36 Physical Function score, Mean change from baseline ([2]; Week 48, 48 μg/day): 2.48**
- SF36 Role-Emotional score, Mean change from baseline ([2]; Week 48, 48 μg/day): 1.22
- SF36 Role-Physical score, Mean change from baseline ([2]; Week 48, 48 μg/day): 1.95**
- SF36 Social Function score, Mean change from baseline ([2]; Week 48, 48 μg/day): 2.22**
- SF36 Vitality score, Mean change from baseline ([2]; Week 48, 48 μg/day): 2.89**
